Measurements reported in patent US9018255B2, “Esters of (acyloxymethyl)acrylamide, a pharmaceutical composition containing them, and their use as inhibitors of the thioredoxin—thioredoxin reductase system” (Instytut Chemii Organicznej Polskiej Akademii Nauk, priority 2010, dated 2015).
“Also recorded” adds a separate entry of the source. Read-outs that look alike come from different tables or passages of the source.

Columns and labels:
[1] = biological target: T1, glutathione reductase (Homo sapiens (Human), UniProt P00390); experiment: Glutathione reductase activity, DTNB chromogenic assay (Glutathione Reductase Assay Kit); assay type: biochemical; settings: for IC50: read-out: IC50 of glutathione reductase activity inhibition; for inhibition of glutathione reductase activity: even at a concentration of 100 μM
Description: The spatial structures of the active centres of glutathione reductase and the enzymes of the Trx-TrxR system show a high similarity. […] The reactions for determining the activity of recombinant human glutathione reductase made use of a chromogenic reaction with 5,5′-dithiobis-2-nitrobenzoic acid, like in the case of thioredoxin reductase. Activity was determined after 5 and 10 min incubation at room temperature.

[2] = biological target: rat recombinant thioredoxin reductase (Rattus norvegicus (Rat), UniProt O89049); experiment: Thioredoxin reductase activity, DTNB chromogenic assay (Thioredoxin Reductase Assay Kit); assay type: biochemical; settings: for IC50: read-out: IC50 of thioredoxin reductase activity inhibition
Description: Reactions in which the activity of recombinant rat thioredoxin reductase was determined made use of a chromogenic reaction with 5,5′-dithiobis-2-nitrobenzoic acid.

[3] = biological target: human recombinant thioredoxin (Homo sapiens (Human), UniProt P10599); experiment: Thioredoxin activity, insulin reduction / DTNB assay with recombinant enzymes; assay type: biochemical; settings: for IC50: 37° C., 30 min, 0.25 μM thioredoxin, 0.325 μM thioredoxin reductase, read-out: IC50 of thioredoxin inhibition; for thioredoxin activity inhibition in comparison to PX-12: in words
Description: The method of determining thioredoxin activity is based on the reduction of insulin by thioredoxin. Thioredoxin is reconstituted is by thioredoxin reductase, with NADPH. The resulting free thiol —SH groups react with 5,5′-dithiobis-2-nitrobenzoic acid (DTNB). The termination of the reaction results in the formation of a […] colour. The intensity of colouration is determined spectrophotometrically at 412 nm and this corresponds to the number of reduced sulfahydryl groups. The reaction was performed at 37° C. over 30 min. in a buffer containing 50 mM Tris-HCl and 20 mM EDTA at a pH of 7.6. The substrate concentrations used were: 0.25 μM human recombinant thioredoxin and 0.325 μM rat recombinant thioredoxin reductase (IMCO Corporation Ltd AB, Sweden) and 316 μM of insulin, 0.8 μM NADPH, 8 mM DTNB (Sigma Aldrich).

[4] = tested on: panel of human and murine lines of tumour cells; experiment: Cytostatic/cytotoxic activity against panel of tumour cell lines (FIG. 1); assay type: cell-based; settings: in words
Description: The cytostatic/cytotoxic activity against adherent cells, from solid tumours cells (EMT6, PAN02, CT26 and T24) was evaluated using the crystalline violet test, whereas against suspension-grown cells of the MTT line. b.d.=no data.
(§1) The cytostatic/cytotoxic activity was evaluated using the following lines of tumour cells: EMT6 (murine breast cancer), PANC02 (murine pancreatic cancer), B78 (murine melanoma), C-26 (murine colon cancer), K562 (human chronic myelogenic leukaemia), T24 (human bladder cancer), RAJI (human Burkitt's lymphoma), Ramos (human Burkitt's lymphoma). The cultures were maintained in the following media: DMEM (EMT6, PANC02, B78), RPMI (C-26, Raji, Ramos), IMDM (K562), McCoy's (T24) with an addition of 10% bovine serum (Invitrogen) and antibiotics (Sigma).
(§2) To determine cytostatic/cytotoxic activity of the evaluated compounds, cell cultures were initiated in 96-well plates. After 24 h, inhibitors were added at set concentrations. The results were determined using colorimetric methods following 72 hours of incubation. To determine cytostatic/cytotoxic activity, crystal violet dyeing was used (reading at 595 nm) or MTT (Sigma; reading at 570 nm).

[5] = tested on: PANC02 (murine pancreatic cancer); experiment: Cytostatic/cytotoxic activity, PANC02; assay type: cell-based; settings: PANC02, after 72 h of incubation
Description: as §1, §2

[6] = tested on: Ramos (human Burkitt's lymphoma); experiment: Cytostatic/cytotoxic activity, Ramos; assay type: cell-based; settings: after 72 h of incubation
Description: as §1, §2

[7] = tested on: K562 (human chronic myelogenic leukaemia); experiment: Cytostatic/cytotoxic activity, K562; assay type: cell-based; settings: K562, after 72 h of incubation
Description: as §1, §2

[8] = tested on: EMT6 (murine breast cancer); experiment: Cytostatic/cytotoxic activity, EMT6; assay type: cell-based; settings: for LD50 of the evaluated compound: EMT6, after 72 h of incubation
Description: as §1
To determine cytostatic/cytotoxic activity of the evaluated compounds, cell cultures were initiated in 96-well plates. After 24 h, inhibitors were added at set concentrations. The results were determined using colorimetric methods following 72 hours of incubation.

[9] = tested on: C-26 (murine colon cancer); experiment: Cytostatic/cytotoxic activity, C-26; assay type: cell-based; settings: C-26, after 72 h of incubation
Description: as §1, §2

[10] = tested on: T24 cells; experiment: Cell cycle analysis by flow cytometry (propidium iodide); assay type: cell-based, human; settings: T24, 72 hours of incubation
Description: The cell cycle is composed of a series of events leading to cell division. In the cell cycle we differentiate the following phases: G1 (interval between divisions), S (duplication of genetic material) and G2/M (division or mitosis). An analysis of the cel cycle using a flow-through cytometer makes it possible to determine the percentage of cells in each of the phases. Furthermore, the percentage of cells in the so-called subG1 phase: those, whose genetic material has degraded as a result of apoptosis or necrosis.
The cells were stained with propidium iodide at […] and analysed with flow-through cytometry. The percentage of dividing cells duplicating their genetic material (S phase) is clearly lower after incubation with inhibitors of thioredoxin.

[11] = tested on: B78 (murine melanoma); experiment: Cytostatic/cytotoxic activity, B78; assay type: cell-based; settings: B78, after 72 h of incubation
Description: as §1, §2

[12] = tested on: RAJI (human Burkitt's lymphoma); experiment: Cytostatic/cytotoxic activity, RAJI; assay type: cell-based; settings: after 72 h of incubation
Description: as §1, §2

[13] = tested on: T24 (human bladder cancer); experiment: Cytostatic/cytotoxic activity, T24; assay type: cell-based; settings: T24, after 72 h of incubation
Description: as §1, §2

[14] = biological target: thioredoxin reductase (Homo sapiens (Human), UniProt Q16881); settings: literature (Gromer et al. 1998); cited from earlier work
[15] = biological target: T1, glutathione reductase; settings: literature (Gromer et al. 1998); cited from earlier work

Chain of human recombinant thioredoxin (P10599 whole entry): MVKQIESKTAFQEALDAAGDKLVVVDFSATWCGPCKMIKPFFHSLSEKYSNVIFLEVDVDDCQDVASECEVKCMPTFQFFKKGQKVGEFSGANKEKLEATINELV
Chain of rat recombinant thioredoxin reductase (O89049 whole entry): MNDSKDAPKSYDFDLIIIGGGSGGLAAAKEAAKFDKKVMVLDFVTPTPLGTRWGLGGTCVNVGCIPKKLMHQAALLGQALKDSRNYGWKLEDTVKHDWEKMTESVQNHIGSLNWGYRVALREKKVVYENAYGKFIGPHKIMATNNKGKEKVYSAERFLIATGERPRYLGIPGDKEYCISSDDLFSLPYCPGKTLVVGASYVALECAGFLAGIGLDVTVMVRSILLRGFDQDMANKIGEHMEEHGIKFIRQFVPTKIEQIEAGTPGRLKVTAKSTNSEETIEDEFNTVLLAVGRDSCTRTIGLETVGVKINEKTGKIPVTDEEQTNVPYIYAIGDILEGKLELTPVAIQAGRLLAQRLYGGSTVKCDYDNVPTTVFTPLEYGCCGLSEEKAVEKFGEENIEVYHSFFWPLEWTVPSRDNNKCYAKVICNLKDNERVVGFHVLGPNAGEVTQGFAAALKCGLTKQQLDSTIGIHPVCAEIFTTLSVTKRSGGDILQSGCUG
T1 sequence (P00390 44-522): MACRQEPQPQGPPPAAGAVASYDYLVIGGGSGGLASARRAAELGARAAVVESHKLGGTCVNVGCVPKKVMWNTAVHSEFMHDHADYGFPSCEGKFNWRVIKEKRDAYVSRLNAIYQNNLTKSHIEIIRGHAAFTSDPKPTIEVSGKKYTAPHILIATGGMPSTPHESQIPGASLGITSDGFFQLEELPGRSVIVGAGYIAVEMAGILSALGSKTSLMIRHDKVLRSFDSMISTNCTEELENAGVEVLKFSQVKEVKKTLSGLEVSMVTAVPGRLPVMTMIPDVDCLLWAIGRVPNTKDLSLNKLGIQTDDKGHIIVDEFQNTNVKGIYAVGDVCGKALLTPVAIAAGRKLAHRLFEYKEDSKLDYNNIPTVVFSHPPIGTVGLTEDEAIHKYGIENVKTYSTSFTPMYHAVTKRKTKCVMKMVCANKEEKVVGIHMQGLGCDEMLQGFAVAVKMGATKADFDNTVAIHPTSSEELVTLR
Chain of thioredoxin reductase (Q16881 151-649): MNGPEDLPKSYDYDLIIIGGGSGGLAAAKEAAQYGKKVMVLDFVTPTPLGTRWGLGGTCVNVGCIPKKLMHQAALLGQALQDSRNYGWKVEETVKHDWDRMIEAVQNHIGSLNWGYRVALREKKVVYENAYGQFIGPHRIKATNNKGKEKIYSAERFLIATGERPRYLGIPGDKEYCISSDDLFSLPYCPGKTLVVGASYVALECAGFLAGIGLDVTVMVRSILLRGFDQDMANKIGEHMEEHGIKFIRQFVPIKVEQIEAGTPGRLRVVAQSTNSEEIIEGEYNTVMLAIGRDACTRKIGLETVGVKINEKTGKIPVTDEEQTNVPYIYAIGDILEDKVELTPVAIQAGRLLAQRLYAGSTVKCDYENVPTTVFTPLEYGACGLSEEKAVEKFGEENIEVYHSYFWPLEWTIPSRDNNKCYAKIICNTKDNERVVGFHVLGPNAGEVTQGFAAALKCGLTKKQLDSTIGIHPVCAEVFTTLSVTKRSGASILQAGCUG

C=C(COC(=O)c1c(Cl)cccc1Cl)C(=O)NCc1ccccc1 [Compound 8b, 2-(benzylcarbamoyl)allyl 2,6-dichlorobenzoate]
IC50 ([1]; 5 min from reaction onset): > 100 µM
IC50 ([1]; 10 min from reaction onset): > 100 µM
inhibition of glutathione reductase activity [1]: None
IC50 ([2]; 5 min from reaction onset): > 40 µM
IC50 ([2]; 15 min from reaction onset): > 40 µM
IC50 [3]: 5.9 µM
selectivity as thioredoxin inhibitor in comparison to PX-12 ([3]; from Tables 1, 2 and 3): considerably more selective
thioredoxin activity inhibition in comparison to PX-12 [3]: concentrations smaller than compound PX-12
cytostatic/cytotoxic activity [4]: strong cytostatic/cytotoxic activity

CCC(C)SSc1ncc[nH]1 (stereo not drawn) [PX-12, 1-methylpropyl-2-imidazole disulphide, reference compound]
IC50 ([1]; 5 min from reaction onset): 19.8 µM
IC50 ([1]; 10 min from reaction onset): 28.6 µM
LD50 of the evaluated compound [5]: 3.8 µM
LD50 of the evaluated compound [6]: 3.7 µM
LD50 of the evaluated compound [7]: 4.9 µM
LD50 of the evaluated compound [8]: 12.7 µM
LD50 of the evaluated compound [9]: 5.4 µM
percentage of dividing cells duplicating their genetic material (S phase) [10]: clearly lower
LD50 of the evaluated compound [11]: 5.3 µM
LD50 of the evaluated compound [12]: 5.9 µM
LD50 of the evaluated compound [13]: 4.5 µM

C=C(COC(=O)c1c(C(F)(F)F)cccc1C(F)(F)F)C(=O)N[C@H](CC(C)C)C(=O)NCC(=O)OCC [Compound D-3a, (R)-2-((1-((2-ethoxy-2-oxoethyl)amino)-4-methyl-1-oxopentan-2-yl)carbamoyl)allyl 2,6-bis(trifluoromethyl)benzoate]
thioredoxin activity inhibition in comparison to PX-12 [3]: concentrations smaller than compound PX-12
cytostatic/cytotoxic activity [4]: strong cytostatic/cytotoxic activity

C=C(COC(=O)c1c(C(F)(F)F)cccc1C(F)(F)F)C(=O)N[C@@H](CC(C)C)C(=O)NCC(=O)OCC [Compound L-3a, (S)-2-((1-((2-ethoxy-2-oxoethyl)amino)-4-methyl-1-oxopentan-2-yl)carbamoilo)allyl 2,6-bis(trifluoromethyl)benzoate]
thioredoxin activity inhibition in comparison to PX-12 [3]: concentrations smaller than compound PX-12
cytostatic/cytotoxic activity [4]: strong cytostatic/cytotoxic activity

C=C(COC(=O)c1c(C(F)(F)F)cccc1C(F)(F)F)C(=O)NCc1ccccc1 [Compound 8a, 2-(benzylcarbamoyl)allyl 2,6-bis(trifluoromethyl)benzoate]
IC50 ([1]; 5 min from reaction onset): > 100 µM
IC50 ([1]; 10 min from reaction onset): > 100 µM
IC50 ([2]; 5 min from reaction onset): > 40 µM
IC50 ([2]; 15 min from reaction onset): > 40 µM
cytostatic/cytotoxic activity [4]: strong cytostatic/cytotoxic activity

C=C(COC(=O)c1c(C(F)(F)F)cccc1C(F)(F)F)C(=O)NC(CC(C)C)C(=O)NCC(=O)OCC (racemic) [Compound 3a, 2-((1-((2-ethoxy-2-oxoethyl)amino)-4-methyl-1-oxopentan-2-yl)carbamoyl)allyl 2,6-bis(trifluoromethyl)benzoate]
IC50 ([1]; 5 min from reaction onset): > 100 µM
IC50 ([1]; 10 min from reaction onset): > 100 µM
inhibition of glutathione reductase activity [1]: None
LD50 of the evaluated compound [5]: 3.2 µM
IC50 ([2]; 5 min from reaction onset): 37.1 µM
IC50 ([2]; 15 min from reaction onset): > 40 µM
inhibition of thioredoxin reductase activity ([2]; in words): slightly inhibited
thioredoxin reductase activity inhibition in comparison to PX-12 ([2]; in words): about three times less; also recorded: IC50 nearly three times higher
LD50 of the evaluated compound [6]: 3.3 µM
LD50 of the evaluated compound [7]: 3.8 µM
cytostatic/cytotoxic activity in comparison to PX-12 ([8]; EMT6): over two times more active
LD50 of the evaluated compound [8]: 5.3 µM
LD50 of the evaluated compound [9]: 3.2 µM
percentage of dividing cells duplicating their genetic material (S phase) [10]: clearly lower
thioredoxin activity inhibition in comparison to PX-12 [3]: concentrations smaller than compound PX-12; also recorded: three times stronger
LD50 of the evaluated compound [11]: 4.3 µM
cytostatic/cytotoxic activity [4]: comparable
LD50 of the evaluated compound [12]: 4.6 µM
LD50 of the evaluated compound [13]: 5.1 µM

C=C(COC(=O)c1c(Cl)cccc1Cl)C(=O)NC(CC(C)C)C(=O)NCC(=O)OCC (racemic) [Compound 3b, 2-((1-((2-ethoxy-2-oxoethyl)amino)-4-methyl-1-oxopentan-2-yl)carbamoyl)allyl 2,6-dichlorobenzoate]
IC50 [3]: 2.9 µM
thioredoxin activity inhibition in comparison to PX-12 [3]: concentrations smaller than compound PX-12
thioredoxin IC50, times lower than for PX-12 ([3]; ratio to PX-12): about 5 times
cytostatic/cytotoxic activity [4]: strong cytostatic/cytotoxic activity

CC[P](CC)(CC)=[Au][S]C1OC(OC(C)=O)C(OC(C)=O)C(OC(C)=O)C1OC(C)=O (stereo not drawn) [auranofin]
concentrations inhibiting thioredoxin reductase [14]: nanomolar concentrations
concentrations inhibiting glutathione reductase [15]: micromolar levels
